Reference: paper PMC4522657, “Identification of a DYRK1A Inhibitor that Induces Degradation of the Target Kinase using Co-chaperone CDC37 fused with Luciferase nanoKAZ” (Scientific Reports, 2015)

Legend:
FGFR3(K650E) = target: T1, FGFR3(K650E) (Homo sapiens, UniProt P22607, K650E); experiment: Kinase panel, CaNDY 1 µM; format: biochemical; details: CaNDY 1 µM relative to DMSO
T1 construct: purchased Carna Biosciences

FGFR4(N535K) = target: T2, FGFR4(N535K) (Homo sapiens, UniProt P22455, N535K); experiment: Kinase panel, CaNDY 1 µM; format: biochemical; details: CaNDY 1 µM relative to DMSO
T2 construct: purchased Carna Biosciences

RET = target: T3, RET (Homo sapiens, UniProt P07949); experiment: Kinase panel, CaNDY 1 µM; format: biochemical; details: CaNDY 1 µM relative to DMSO
T3 construct: purchased Carna Biosciences

ROS = target: T4, ROS (Homo sapiens, UniProt P08922); experiment: Kinase panel, CaNDY 1 µM; format: biochemical; details: CaNDY 1 µM relative to DMSO
T4 construct: purchased Carna Biosciences

TNK1 = target: T5, TNK1 (Homo sapiens, UniProt Q13470); experiment: Kinase panel, CaNDY 1 µM; format: biochemical; details: CaNDY 1 µM relative to DMSO
T5 construct: purchased Carna Biosciences

CK2α2/β = target: T6, CK2α2/β (Homo sapiens, UniProt P19784); experiment: Kinase panel, CaNDY 1 µM; format: biochemical; details: CaNDY 1 µM relative to DMSO
T6 construct: purchased Carna Biosciences
T6 sequence (P19784 whole entry): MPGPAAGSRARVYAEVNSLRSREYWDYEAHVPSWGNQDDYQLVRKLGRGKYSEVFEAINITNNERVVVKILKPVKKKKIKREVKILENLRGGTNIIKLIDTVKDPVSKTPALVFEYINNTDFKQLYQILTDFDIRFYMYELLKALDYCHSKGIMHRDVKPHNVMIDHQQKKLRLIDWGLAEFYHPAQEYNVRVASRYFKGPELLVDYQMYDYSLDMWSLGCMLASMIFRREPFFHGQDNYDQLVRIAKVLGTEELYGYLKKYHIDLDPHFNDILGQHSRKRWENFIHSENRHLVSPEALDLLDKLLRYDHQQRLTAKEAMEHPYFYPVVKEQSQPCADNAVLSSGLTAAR
T6 sequence (P67870 whole entry partner): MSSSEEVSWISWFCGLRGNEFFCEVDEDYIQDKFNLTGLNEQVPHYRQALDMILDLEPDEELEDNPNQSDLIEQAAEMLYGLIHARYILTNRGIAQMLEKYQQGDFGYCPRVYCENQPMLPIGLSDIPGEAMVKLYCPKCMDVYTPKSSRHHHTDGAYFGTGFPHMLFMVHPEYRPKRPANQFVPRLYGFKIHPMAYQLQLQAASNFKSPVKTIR

CLK2 = target: T7, CLK2 (Homo sapiens, UniProt P49760); experiment: Kinase panel, CaNDY 1 µM; format: biochemical
T7 construct: purchased Carna Biosciences
T7 sequence (P49760 whole entry): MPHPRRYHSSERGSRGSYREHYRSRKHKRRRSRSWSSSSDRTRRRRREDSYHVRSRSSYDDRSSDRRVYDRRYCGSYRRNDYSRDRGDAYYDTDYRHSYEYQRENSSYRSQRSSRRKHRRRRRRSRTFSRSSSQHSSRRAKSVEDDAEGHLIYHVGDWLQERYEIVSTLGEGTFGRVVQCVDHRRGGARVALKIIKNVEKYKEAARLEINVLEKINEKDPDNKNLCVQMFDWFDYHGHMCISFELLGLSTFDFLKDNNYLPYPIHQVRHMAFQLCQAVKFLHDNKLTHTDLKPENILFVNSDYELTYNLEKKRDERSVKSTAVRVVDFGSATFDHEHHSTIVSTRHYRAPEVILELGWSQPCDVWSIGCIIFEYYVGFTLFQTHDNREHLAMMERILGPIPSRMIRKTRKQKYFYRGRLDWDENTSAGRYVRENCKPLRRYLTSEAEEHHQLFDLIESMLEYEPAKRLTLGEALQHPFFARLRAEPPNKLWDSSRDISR

HGK = target: T8, HGK (Homo sapiens, UniProt O95819); experiment: Kinase panel, CaNDY 1 µM; format: biochemical; details: CaNDY 1 µM relative to DMSO
T8 construct: purchased Carna Biosciences
T8 sequence (O95819 whole entry): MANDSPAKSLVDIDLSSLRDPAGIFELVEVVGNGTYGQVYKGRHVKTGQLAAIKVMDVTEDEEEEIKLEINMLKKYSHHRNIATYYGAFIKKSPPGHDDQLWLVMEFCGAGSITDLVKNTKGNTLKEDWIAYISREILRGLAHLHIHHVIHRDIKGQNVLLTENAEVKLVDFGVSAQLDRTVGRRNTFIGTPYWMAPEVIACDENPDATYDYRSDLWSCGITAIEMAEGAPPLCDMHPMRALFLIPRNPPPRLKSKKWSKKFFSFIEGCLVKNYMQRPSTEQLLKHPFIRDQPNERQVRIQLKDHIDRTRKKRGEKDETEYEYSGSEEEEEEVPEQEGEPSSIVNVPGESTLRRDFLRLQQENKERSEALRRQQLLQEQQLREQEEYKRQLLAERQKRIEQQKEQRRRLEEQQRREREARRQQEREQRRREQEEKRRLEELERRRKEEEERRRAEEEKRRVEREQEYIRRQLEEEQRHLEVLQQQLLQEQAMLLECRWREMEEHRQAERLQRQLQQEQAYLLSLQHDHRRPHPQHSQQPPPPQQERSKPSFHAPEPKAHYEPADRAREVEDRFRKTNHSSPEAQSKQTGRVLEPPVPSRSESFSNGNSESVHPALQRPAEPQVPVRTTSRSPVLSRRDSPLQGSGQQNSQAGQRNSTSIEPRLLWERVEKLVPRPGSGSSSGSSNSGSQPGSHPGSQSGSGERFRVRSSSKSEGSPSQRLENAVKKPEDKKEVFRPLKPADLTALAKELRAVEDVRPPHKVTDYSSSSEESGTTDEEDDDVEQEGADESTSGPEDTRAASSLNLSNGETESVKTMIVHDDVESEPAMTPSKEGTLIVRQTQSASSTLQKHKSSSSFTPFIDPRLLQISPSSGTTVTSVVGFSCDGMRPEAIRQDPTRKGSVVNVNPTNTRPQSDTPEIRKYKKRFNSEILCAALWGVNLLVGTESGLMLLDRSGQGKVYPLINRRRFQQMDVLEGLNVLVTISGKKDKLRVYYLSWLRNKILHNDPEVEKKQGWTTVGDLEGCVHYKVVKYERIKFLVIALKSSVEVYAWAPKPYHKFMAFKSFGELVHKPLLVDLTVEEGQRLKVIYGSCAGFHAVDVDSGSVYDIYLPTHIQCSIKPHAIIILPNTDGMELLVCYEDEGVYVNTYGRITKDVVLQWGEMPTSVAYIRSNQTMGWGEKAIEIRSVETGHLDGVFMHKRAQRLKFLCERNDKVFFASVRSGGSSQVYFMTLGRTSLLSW

MAP3K2_Cascade = target: T9, MAP3K2_Cascade (Homo sapiens, UniProt Q9Y2U5); experiment: Kinase panel, CaNDY 1 µM; format: biochemical; details: CaNDY 1 µM relative to DMSO
T9 construct: purchased Carna Biosciences
T9 sequence (Q9Y2U5 whole entry): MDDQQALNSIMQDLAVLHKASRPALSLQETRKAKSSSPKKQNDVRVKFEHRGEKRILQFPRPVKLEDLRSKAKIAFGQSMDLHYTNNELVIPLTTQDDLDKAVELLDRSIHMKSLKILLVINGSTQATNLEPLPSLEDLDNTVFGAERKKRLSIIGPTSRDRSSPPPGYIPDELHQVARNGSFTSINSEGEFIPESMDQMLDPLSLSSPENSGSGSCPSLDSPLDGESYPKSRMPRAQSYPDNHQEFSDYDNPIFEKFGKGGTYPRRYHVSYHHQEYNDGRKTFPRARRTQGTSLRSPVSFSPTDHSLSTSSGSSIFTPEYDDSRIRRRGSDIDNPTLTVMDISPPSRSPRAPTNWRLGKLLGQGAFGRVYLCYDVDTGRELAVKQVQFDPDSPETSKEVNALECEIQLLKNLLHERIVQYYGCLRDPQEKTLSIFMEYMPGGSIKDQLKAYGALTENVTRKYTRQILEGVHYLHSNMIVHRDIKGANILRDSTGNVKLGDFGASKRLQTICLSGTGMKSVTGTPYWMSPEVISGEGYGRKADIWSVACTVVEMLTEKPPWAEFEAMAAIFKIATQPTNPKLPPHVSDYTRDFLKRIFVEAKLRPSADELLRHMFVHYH

MAP3K4_Cascade = target: T10, MAP3K4_Cascade (Homo sapiens, UniProt Q9Y6R4); experiment: Kinase panel, CaNDY 1 µM; format: biochemical; details: CaNDY 1 µM relative to DMSO
T10 construct: purchased Carna Biosciences

PAK1 = target: T11, PAK1 (Homo sapiens, UniProt Q13153); experiment: Kinase panel, CaNDY 1 µM; format: biochemical; details: CaNDY 1 µM relative to DMSO
T11 construct: purchased Carna Biosciences
T11 sequence (Q13153 whole entry): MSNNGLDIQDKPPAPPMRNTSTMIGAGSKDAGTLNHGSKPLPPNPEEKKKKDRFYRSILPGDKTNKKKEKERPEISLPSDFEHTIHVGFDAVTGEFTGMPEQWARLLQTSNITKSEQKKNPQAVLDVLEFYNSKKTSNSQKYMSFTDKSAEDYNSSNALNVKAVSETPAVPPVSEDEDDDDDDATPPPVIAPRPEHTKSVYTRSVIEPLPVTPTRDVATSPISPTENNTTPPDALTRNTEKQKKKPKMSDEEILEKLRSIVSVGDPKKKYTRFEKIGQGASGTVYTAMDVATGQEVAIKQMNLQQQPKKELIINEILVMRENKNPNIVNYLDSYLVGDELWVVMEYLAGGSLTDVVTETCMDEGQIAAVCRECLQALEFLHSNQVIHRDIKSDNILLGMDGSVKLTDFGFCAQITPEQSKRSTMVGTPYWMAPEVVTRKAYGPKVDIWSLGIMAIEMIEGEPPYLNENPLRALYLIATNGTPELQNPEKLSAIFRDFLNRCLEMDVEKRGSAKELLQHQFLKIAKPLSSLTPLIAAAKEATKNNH

PAK5 = target: T12, PAK5 (Homo sapiens, UniProt Q9P286); experiment: Kinase panel, CaNDY 1 µM; format: biochemical; details: CaNDY 1 µM relative to DMSO
T12 construct: purchased Carna Biosciences
T12 sequence (Q9P286 whole entry): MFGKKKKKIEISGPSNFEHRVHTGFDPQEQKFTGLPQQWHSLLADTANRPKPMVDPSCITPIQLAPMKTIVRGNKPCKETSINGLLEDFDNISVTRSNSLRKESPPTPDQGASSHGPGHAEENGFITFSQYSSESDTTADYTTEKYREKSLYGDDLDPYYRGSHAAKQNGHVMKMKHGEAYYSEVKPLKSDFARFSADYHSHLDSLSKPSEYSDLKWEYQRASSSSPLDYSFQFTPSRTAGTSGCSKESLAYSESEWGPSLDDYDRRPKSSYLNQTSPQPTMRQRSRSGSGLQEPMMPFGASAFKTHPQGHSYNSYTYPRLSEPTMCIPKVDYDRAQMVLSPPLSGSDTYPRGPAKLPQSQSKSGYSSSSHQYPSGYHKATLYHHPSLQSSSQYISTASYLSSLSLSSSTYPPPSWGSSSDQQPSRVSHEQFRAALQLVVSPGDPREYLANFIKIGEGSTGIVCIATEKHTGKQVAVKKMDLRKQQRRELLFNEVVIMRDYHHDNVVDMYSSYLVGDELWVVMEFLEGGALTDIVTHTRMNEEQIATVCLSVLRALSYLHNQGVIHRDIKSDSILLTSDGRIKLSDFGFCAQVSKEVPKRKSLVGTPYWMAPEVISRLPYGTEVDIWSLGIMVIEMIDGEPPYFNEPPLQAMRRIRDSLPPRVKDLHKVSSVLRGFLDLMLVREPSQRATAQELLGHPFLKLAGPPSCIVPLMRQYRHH

PKACα = target: T13, PKACα (Homo sapiens, UniProt P17612); experiment: Kinase panel, CaNDY 1 µM; format: biochemical; details: CaNDY 1 µM relative to DMSO
T13 construct: purchased Carna Biosciences

mRNA coding for DYRK1A = experiment: Reverse transcription and quantitative PCR in HEK293 cells; format: cell-based; details: CaNDY 2 µM, four days
Description: Total RNA of the cells was isolated using Sepasol-RNA I Super G (Nacalai Tesque), and then subjected to reverse transcription with Prime Script RTase (Takara Bio). Realtime PCR was performed with FastStart Universal SYBR Green Master (Rox) (Roche Diagnostics, Basel, Switzerland) using StepOnePlus Real-Time PCR System (Applied Biosystems, Life technologies). The nucleotide sequences of the primers are as follows: the forward primer for DYRK1A, 5′-[…]-3′; the reverse primer for DYRK1A, 5′-[…]-3′; the forward primer for GAPDH, 5′-[…]-3′; and the reverse primer for GAPDH, 5′-[…]-3′.
(§1) Targeting the DYRK1A/CDC37 complex
Figure S6. Expression of endogenous DYRK1A mRNA in HEK293 cells treated with
HEK293 cells were cultured in the presence of CaNDY (2 µM) for four days, and subjected to
reverse transcription followed by quantitative PCR analysis. Bar graphs show means ± SD (n =
(§2) (1 picture or pasted object on this page, not shown here)

CDC37-nanoKAZ = experiment: Luminescence activity of CDC37-nanoKAZ in total cell lysates; format: cell-based; details: counter-test, same concentrations as interaction assay
Description: The luminescence activity of the cell lysates was determined using a Centro LB 960 Microplate Luminometer (Berthold Technologies, Bad Wildbad, Germany). A reaction mixture containing bis-coelenterazine (final concentration of 0.1–1 μg/100 μL) in PBS containing 0.02% Tween20 and 20 mM EDTA was injected. The luminescence intensity was recorded at 0.1 s intervals for 10 s or 10 min. The maximum luminescence intensity (Imax), represented in relative luminescence units (rlu), was used in the study.
as §1
(a-d) Luminescence intensities of total cell lysates of cells treated with the indicated […]
Figure 4. Luminescence intensities at each concentration are shown as fold-changes relative to that at 0 nM. Points are means ± SD (n = 3).
as §2
Luminescence intensities of total cell lysates of cells treated with the indicated concentrations of CaNDY, as also used in Figure 5c. Luminescence intensities at each concentration are shown as fold-changes to that at 0 nM. Points are means ± SD (n = 3).

DYRK1A = DYRK1A (Homo sapiens, UniProt Q13627); experiment: In vitro kinase assay, substrate DYRKtide-F; format: biochemical; set-up: full-length human recombinant kinases were expressed using a baculovirus expression system as amino-terminal GST-fusion proteins; GST (N); purchased Carna Biosciences; host or cells: baculovirus expression system; details: 25 μM ATP, 1 μM DYRKtide-F; read-out: IC50, substrate phosphorylation
From the text: (§3) Detailed information on the assay conditions is available on the website of Carna Biosciences (http://www.carnabio.com/english/index.html; Kobe, Japan). In brief, full-length human recombinant kinases were expressed using a baculovirus expression system as amino-terminal GST-fusion proteins, and purified by glutathione-Sepharose chromatography. The GenBank accession numbers of DYRK1A, DYRK1B, DYRK2, and DYRK3 were NP_001387.2, NP_004705.1, NP_003574.1, and NP_003573.2. […] For each compound, a DMSO solution was diluted in assay buffer to yield a final concentration of 1% DMSO. After incubation for one hour at room temperature, substrate phosphorylation was analyzed by electrophoretic separation of the substrate and products using a Caliper LC3000 platform (Caliper Life Sciences, Mountain View, CA, USA). The phosphorylated product (P)/(P + substrate) ratio was calculated at each concentration of each small molecule and the percent inhibition was expressed relative to a control assay in the absence of the small molecule. […] The IC50 of each compound was calculated by interpolation on a log-concentration-response curve fitted with a four-parameter logistic equation.

DYRK1B = DYRK1B (Homo sapiens, UniProt Q9Y463); experiment: In vitro kinase assay, substrate DYRKtide-F; format: biochemical; set-up: full-length human recombinant kinases were expressed using a baculovirus expression system as amino-terminal GST-fusion proteins; GST (N); purchased Carna Biosciences; host or cells: baculovirus expression system; details: 50 μM ATP, 1 μM DYRKtide-F
From the text: as §3

T1 sequence (P22607 23-806 K650E): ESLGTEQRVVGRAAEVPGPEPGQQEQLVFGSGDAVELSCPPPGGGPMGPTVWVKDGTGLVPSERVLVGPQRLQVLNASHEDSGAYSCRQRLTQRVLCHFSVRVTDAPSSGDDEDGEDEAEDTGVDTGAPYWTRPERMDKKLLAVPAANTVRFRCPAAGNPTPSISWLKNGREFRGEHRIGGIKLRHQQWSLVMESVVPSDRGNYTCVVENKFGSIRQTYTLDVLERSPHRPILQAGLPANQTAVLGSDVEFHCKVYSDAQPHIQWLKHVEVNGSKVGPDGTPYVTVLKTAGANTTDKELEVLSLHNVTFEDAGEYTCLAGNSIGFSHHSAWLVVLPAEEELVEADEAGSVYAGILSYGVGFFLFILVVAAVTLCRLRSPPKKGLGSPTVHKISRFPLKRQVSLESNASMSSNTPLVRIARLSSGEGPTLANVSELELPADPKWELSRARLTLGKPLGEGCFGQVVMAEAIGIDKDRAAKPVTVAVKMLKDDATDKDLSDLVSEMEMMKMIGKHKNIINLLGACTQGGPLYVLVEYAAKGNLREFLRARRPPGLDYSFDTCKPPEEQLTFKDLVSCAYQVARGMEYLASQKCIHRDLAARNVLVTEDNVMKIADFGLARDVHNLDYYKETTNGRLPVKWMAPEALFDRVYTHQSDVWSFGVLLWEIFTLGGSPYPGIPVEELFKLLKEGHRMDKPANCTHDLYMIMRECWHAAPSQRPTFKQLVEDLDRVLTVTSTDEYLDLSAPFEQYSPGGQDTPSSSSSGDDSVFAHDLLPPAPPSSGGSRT

[H]/N=C1/NC(=O)C(=Cc2ccc3c(c2)CCO3)S1 [CaNDY, (Z)-5-[(2,3-dihydrobenzofuran-5-yl)methylene]-2-iminothiazolidin-4-one]
remaining activity at 1 µM (FGFR3(K650E)): 101%
remaining activity at 1 µM (FGFR4(N535K)): 100%
remaining activity at 1 µM (RET): 102%
remaining activity at 1 µM (ROS): 103%
remaining activity at 1 µM (TNK1): 99.7%
remaining activity at 1 µM (CK2α2/β): 23.4%
inhibition at 1 µM (CLK2; 1 μM CaNDY, read-out: percentage inhibition): > 90%
%Activity (CLK2; CaNDY 1 µM relative to DMSO): 9.0%
remaining activity at 1 µM (HGK): 42.1%
remaining activity at 1 µM (MAP3K2_Cascade): 102%
remaining activity at 1 µM (MAP3K4_Cascade): 101%
remaining activity at 1 µM (PAK1): 98.6%
remaining activity at 1 µM (PAK5): 97.5%
remaining activity at 1 µM (PKACα): 88.9%
expression of mRNA coding for DYRK1A (mRNA coding for DYRK1A): slightly decreased
inhibition of luminescence activity of CDC37-nanoKAZ (CDC37-nanoKAZ): did not inhibit
IC50 (DYRK1A): 7.9 nM
IC50 (DYRK1B): 24.1 nM
